Assays:
[1] = system: HT-29; experiment: Cytotoxicity against human HT-29 cells; format: functional, cell-based
[2] = system: A549; experiment: Cytotoxicity against human A549 cells; format: functional, cell-based

| SMILES | IC50 [1] [nM] | IC50 [2] [nM] |
| --- | --- | --- |
| CC(C)[C@]12O[C@H]1[C@@H]1O[C@@]13[C@H]1CCC4=C(COC4=O)[C@@H]1C[C@@H]1O[C@@]13[C@H]2O | 78 | 1690 |
| Cc1occ2c1CC[C@H]1[C@H]2C[C@@H]2O[C@@]23[C@H](O)[C@@]2(C(C)C)O[C@H]2[C@@H]2O[C@@]123 | 2010 | 7850 |
| CCc1occ2c1CC[C@H]1[C@H]2C[C@@H]2O[C@@]23[C@H](O)[C@@]2(C(C)C)O[C@H]2[C@@H]2O[C@@]123 | > 13400 | > 13400 |
| Cc1occ2c1CC[C@H]1[C@H]2C[C@@H]2O[C@]23[C@]12O[C@H]2[C@@H]1O[C@]1(C(C)C)[C@]3(C)O | > 13400 | > 13400 |
| Cc1occ2c1CC[C@H]1[C@H]2C[C@@H]2O[C@]23[C@]12O[C@H]2[C@@H]1O[C@]1(C(C)C)[C@@]3(C)O | > 13400 | > 13400 |
| CC(C)[C@]12O[C@H]1[C@@H]1O[C@@]13[C@H]1CCC4=C(COC4=O)[C@@H]1C[C@@H]1O[C@@]13[C@@]2(C)O | 22 | 350 |
| CC[C@@]1(O)[C@]23O[C@H]2C[C@H]2C4=C(CC[C@@H]2[C@@]32O[C@H]2[C@@H]2O[C@@]21C(C)C)C(=O)OC4 | 390 | 2830 |
| CC(C)[C@]12O[C@H]1[C@@H]1O[C@@]13[C@H]1CCC4=C(COC4=O)[C@@H]1C[C@@H]1O[C@@]13[C@]21CO1 | 0.65 | 53 |
| CCc1c2c(nc3ccc(O)cc13)-c1cc3c(c(=O)n1C2)COC(=O)[C@]3(O)CC [7-ETHYL-10-HYDROXYCAMPTOTHECIN] | 5.9 | 47 |
| CC(=O)O[C@@]12CO[C@@H]1C[C@H](O)[C@@]1(C)C(=O)[C@H](O)C3=C(C)[C@@H](OC(=O)[C@H](O)[C@@H](NC(=O)OC(C)(C)C)c4ccccc4)C[C@@](O)([C@@H](OC(=O)c4ccccc4)[C@H]21)C3(C)C [DOCETAXEL] | 0.75 | 1.2 |
| CC(C)[C@]12O[C@H]1[C@@H]1O[C@]13[C@]1(O[C@H]1C[C@H]1C4=C(CC[C@@]13C)C(=O)OC4)[C@@H]2O [TRIPTOLIDE] | 2.1 | 19 |
| CC(C)[C@]12O[C@H]1[C@@H]1O[C@@]13[C@@]1(C)CCC4=C(COC4=O)[C@@H]1C[C@@H]1O[C@@]13C2=O [TRIPTONIDE] | 8.4 | 53 |

— ChEMBL document CHEMBL1770149, “Semisynthesis of triptolide analogues: effect of γ-lactone and C-14 substituents on cytotoxic activities” (Bioorg Med Chem Lett, 2011)
